{"source": "paper PMC3658555", "about": "(ACS Chemical Biology, 2013)", "key": {"β2AR [1]": {"biological_target": "T1, β2AR (Homo sapiens, UniProt P07550)", "T1 sequence (P07550 whole entry)": "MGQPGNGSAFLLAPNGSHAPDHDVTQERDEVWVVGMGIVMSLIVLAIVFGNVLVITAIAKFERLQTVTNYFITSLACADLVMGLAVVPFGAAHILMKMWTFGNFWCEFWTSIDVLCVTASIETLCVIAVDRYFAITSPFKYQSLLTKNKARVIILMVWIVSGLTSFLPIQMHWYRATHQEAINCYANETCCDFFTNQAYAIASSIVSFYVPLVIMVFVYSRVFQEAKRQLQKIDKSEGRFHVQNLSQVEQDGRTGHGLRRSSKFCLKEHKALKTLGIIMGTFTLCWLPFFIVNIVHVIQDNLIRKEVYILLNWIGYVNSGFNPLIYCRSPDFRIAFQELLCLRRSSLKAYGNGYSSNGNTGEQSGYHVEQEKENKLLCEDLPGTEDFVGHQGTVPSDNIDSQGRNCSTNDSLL", "experiment": "Bias factor by the operational model, β-arrestin recruitment", "assay_type": "cell-based"}, "β2AR [2]": {"biological_target": "T1, β2AR", "experiment": "GloSensor cAMP formation assay", "assay_type": "cell-based", "conditions": "from cAMP formation and β-arrestin recruitment"}}, "data": [{"smiles": "CC(Cc1ccc2c(c1)OCO2)NCC(O)c1ccc(O)c(O)c1", "note": "(stereo not drawn) [Compound 12, protokylol]", "values": [{"measurement": "times more efficacious in β-arrestin recruitment than in G protein-mediated cAMP production", "setting": "β2AR [1]; compared to isoproterenol, the unbiased reference", "result": "approximately 10 times"}, {"measurement": "bias factor", "setting": "β2AR [1]; toward β-arrestin, from both Tango and DiscoveRx β-arrestin against Glosensor cAMP data sets, reference isoproterenol", "result": "around 1"}, {"measurement": "agonist efficacy class at β2AR", "setting": "β2AR [2]", "result": "full agonists"}]}]}
